Assay results reported in patent US5672603A, “Apoptosis regulating composition” (Otsuka Pharmaceutical Co., Ltd., priority 1991, dated 1997).
“Also recorded” adds a separate entry of the source.

Legend:
CMK cells [1] = assay: Apoptosis-regulating effect: DNA fragmentation in CMK cells (agarose gel electrophoresis); assay type: cell-based, human; settings: 30 μg/ml; 2 or 4 days
Method: CMK cells were used to prepare a suspension of 1×10^5 cells/ml in RPMI-1640 medium supplemented with fetal calf serum and Compound 1 was added at a concentration of 30 μg/ml. The mixture was incubated in a culture flask at 37° C. for 2 or 4 days. As a control, the medium to which the solvent alone was added was similarly incubated.
Cells were harvested by centrifugation at 4° C. for 10 minutes at 200×G. The pellet was dissolved in a hypotonic buffer (10 mM Tris-HCl, 1 mM EDTA and 0.2% Triton 100, pH 7.5) and the solution was centrifuged at 4° C. for 10 minutes at 13000×G. The supernatant was collected and allowed to stand in 50% isopropyl alcohol -0.5M NaCl at -20° C. overnight. The resultant precipitate was centrifuged at 4° C. for 10 minutes at 13000×G, the supernatant was discarded, and the sediment was dried. The dry sediment was resuspended in 10 mMTris-HCl-1 mM EDTA (pH 7.4). To the supernatant was added RNase at a final concentration of 0.1 mg/ml and the mixture was incubated at 37° C. for 1 hour.
To a sample corresponding to the cell count of 1×10^6 was added 1/5 volume of a loading buffer containing 15 mM EDTA, 2% SDS, 50% glycerol and 0.05% bromphenol blue, and the mixture was incubated at 65° C. for 10 minutes.
The culture sample thus obtained was subjected to electrophoresis in 1.5% agarose gel at 100 V for 100 minutes. The DNA was stained with ethidium bromide. […]

[2] = system: Human stomach cancer cells (KATO-III); assay: Cancer cell growth inhibition, KATO-III; assay type: cell-based; settings: control 100
Method: The cell concentration was adjusted to 1×10^5 cells/ml using the same medium as used above in (1).
Test compound 1 was dissolved in acetic acid, followed by dilution with the same medium as used above in (1) and neutralization with 2N NaOH to give final concentrations of 100 μg/ml, 10 μg/ml and 1.0 μg/ml.
a) The test compound solutions prepared as described above under (3) were added to the HL-60 cell suspension prepared as described above under (1) to final concentrations of 10 μg/ml and 1.0 μg/ml. Using 12-well culture plates (Costar), cultivation was conducted in a 5% carbon dioxide gas incubator maintained at 37° C. for 3 to 4 days. The test compound-free medium was used as a control. Thereafter, the cell suspension in each well was sampled and mixed with 0.2% trypan blue-containing phosphate buffer, and unstained viable cells were counted under a microscope. Based on the counting result, the viable cell concentration was readjusted to 1×10^5 cells/ml, and cultivation was continued under the same conditions.
KATO-III cells prepared as described above under (2) were cultivated in the same manner.

M12 melanoma cells = assay: M12 melanoma cell growth inhibition in nude mice; assay type: in vivo, Balb/c nude mice; settings: 10 mg/kg daily oral, day 25 to day 55; FIG. 2; * p<0.05
Method: This study was performed in groups of 10 Balb/c nude mice.
On the first day of the experiment (day 0), 2×10^6 M12 melanoma cells were transplanted into mice in the test group. When the tumor volume reached 100 mm^3, the test Compound 1 was administered orally in doses of 10 mg/kg daily to the mice. This treatment was carried out 30 times from day 25 to day 55. The tumor diameter was measured using calipers everyday after transplantation of tumor cells. The tumor volume was calculated according to the following formula.
Tumor volume (mm^3)=(long diameter)×(short diameter)^2 ×1/2

HL-60 cells = assay: Differentiation of HL-60 cells (Giemsa and esterase staining); assay type: cell-based, human; settings: day 27
Method: The concentration of HL-60 cells was adjusted to 1×10^5 cells/ml using RPMI-1640 medium (GIBCO) supplemented with 10% of FCS (fetal calf serum; GIBCO).
Giemsa stain solution was prepared by diluting Giemsa reagent (Merck) 50-100 times with phosphate buffer (pH 6.4).
A reagent for esterase staining (Muto Kagaku) was used according to the naphthol AS-D chloroacetate method.
HL-60 cells prepared as described above under (1) were cultivated in the same manner as in a). Cells collected on day 27 were placed on a slide glass and subjected to Giemsa staining, followed by morphological observation under a microscope. […] The results of esterase staining by the naphthol AS-D chloroacetate method indicated differentiation of 70-85% of HL-60 cells into granulocytes.

[3] = system: Human transformed normal T cells (MT-4), HIV-infected; assay: Antiretrovirus activity test: viable HIV-infected MT-4 cells; assay type: cell-based; settings: for Number of HIV-infected cells: 3 days, control 105
Method: Human transformed normal T cells (MT-4) [Nagumo, T. and Hoshino, H., Jpn. J. Cancer Res. 79, 9-11 (1988)] were used to prepare a suspension of 2×10^5 cells/ml in RPMI-1640 medium (Gibco) supplemented 10% FCS (Gibco).
Compound 1 was dissolved in hydrochloric acid, diluted in the same medium as above, neutralized with 2N NaOH and adjusted to concentrations of 1 μg/ml, 10 μg/ml, 30 μg/ml and 100 μg/ml.
The cells prepared in (a) above and the test compound (final concentration: 1 μg/ml, 10 μg/ml, 30 μg/ml or 100 μg/ml) prepared in (b) above were placed in the wells of a 12-well culture plate (Costar). Then, 50 μl/well of HIV suspension was added to infect the cells in each well, followed by 3-day incubation at 37° C. in a 5% carbon dioxide incubator. As a control, the medium without addition of the test compound was used. After completion of incubation, the cell suspension in each well was taken and viable cells were counted.

CMK cells [4] = assay: Morphological observation of CMK cells; assay type: cell-based, human; settings: 30 μg/ml; 4 days
Method: CMK cells, 1×10^5 cells/ml, were incubated in 10% FCS-added RPMI-1640 medium containing Compound 1 for 4 days and observed for the morphology of cells under the phase contrast microscope. A portion of the cell population was taken and a cytospin preparation was prepared and stained with Wright-Giemsa stain for determination of the cell morphology.
Thus, FIGS. 4 and 6 are the phase constrast micrograph and stained map, respectively, of the medium control, and FIGS. 5 and 7 represent the corresponding figures for cells treated with 30 μg/ml of Compound 1.

PC12 cells = assay: Effect on PC12 cells (morphology, phase contrast microscope)
Method: PC12 cells subcultured in Dulbecco's modified Eagle's medium (D-MEM) supplemented with 5% heat-inactivated (56° C., 30 minutes) horse serum and 10% fetal calf serum (FCS) were transferred onto collagen-coatedplastic Petri dishes (35 mm in diameter) at a concentration of 6×10^4 cells/3 ml medium.

**Q.** What does the source list for COc1ccc(C(=O)N2CCN(c3ccc4c(c3)CCC(=O)N4)CC2)cc1OC [Compound 1, 6-[4-(3,4-Dimethoxybenzoyl)-1-piperazinyl]-3,4-dihydrocarbostyril]?
**A.** Apoptosis (DNA fragmentation) (CMK cells [1]): promotes apoptosis of CMK cells; activity at 1 µg/mL ([2]; 576 h, on day 24, 1.0 μg/ml): 88 ± 2.3%; activity at 10 µg/mL ([2]; 576 h, on day 24, 10 μg/ml): 61 ± 1.5%; activity at 1 µg/mL ([2]; 792 h, on day 33, 1.0 μg/ml): 0%; activity at 10 µg/mL ([2]; 792 h, on day 33, 10 μg/ml): 0%; Growth of M12 melanoma cells (tumor volume) (M12 melanoma cells): significantly inhibits growth of M12 melanoma cells; Morphological change, Giemsa staining (HL-60 cells): differentiation into cells with granule was observed; Differentiation of HL-60 cells into granulocytes (esterase staining) (HL-60 cells; naphthol AS-D chloroacetate method): 70-85%; Inhibition of HIV-infected cell growth (in words) [3]: inhibits cell growth; Number of HIV-infected cells ([3]; 1 μg/ml): 100 ×10^4; Number of HIV-infected cells ([3]; 10 μg/ml): 88 ×10^4; Number of HIV-infected cells ([3]; 30 μg/ml): 78 ×10^4; Number of HIV-infected cells ([3]; 100 μg/ml): 85 ×10^4; Morphology, Wright-Giemsa stained map (CMK cells [4]): budding of the cell membrane and lobulation of the nuclei; Morphology, phase contrast micrograph (CMK cells [4]): fragmentation of cells like in the process of platelet production; Cells with morphological changes induced (PC12 cells; 30 μg/ml, day 3): 30-50 % of the total cell population; Formation of nerve fiber-like processes (PC12 cells; 30 μg/ml, most prominent with FCS 0.3%, day 3): formation of nerve fiber-like processes; also recorded: formation of nerve-like processes is observed; Elongation of the process, combination of Compound 1 and NGF (PC12 cells; with NGF, 0.3% FCS, vs Compound 1 or NGF alone): promotes elongation of the process as compared with Compound 1 or NGF alone
